Source: ChEMBL document CHEMBL4354878, “Structure-Based Bioisosterism Yields HIV-1 NNRTIs with Improved Drug-Resistance Profiles and Favorable Pharmacokinetic Properties” (J Med Chem, 2020)

Columns and labels:
[1] = test system: Human immunodeficiency virus 1; assay: (§1) Antiviral activity against HIV1 3B infected in human MT4 cells grown under 30 passages in absence of test compound assessed as protection against virus-induced cytopathic effect incubated for 5 days by MTT assay; format: functional, organism-based; conditions: Human immunodeficiency virus 1, 3B, MT4, 120 h
[2] = test system: Human immunodeficiency virus 1; assay: as §1, with “presence” for “absence”, “(E)-4-((4-((4-(4-(2-Cyanovinyl)-2,6-dimethylphenoxy)thieno[2,3- d]pyrimidin-2-yl)amino)piperidin-1-yl)methyl)benzenesulfonamide” for “test compound”; format: functional, organism-based; conditions: Human immunodeficiency virus 1, 3B, MT4, 120 h
[3] = test system: Human immunodeficiency virus 1; assay: as §1, with “presence” for “absence”, “4-[[4-[[4-(4-cyano-2,6-dimethylphenoxy)thieno[3,2-d]pyrimidin-2-yl]amino]-1-piperidyl]methyl]benzenesulfonamide” for “test compound”; format: functional, organism-based; conditions: Human immunodeficiency virus 1, 3B, MT4, 120 h
[4] = test system: Human immunodeficiency virus 1; assay: as §1, with “presence” for “absence”, “4-[[4-[[4-[4-[2-cyanovinyl]-2,6-dimethylphenoxy]thieno[3,2-d]pyrimidin-2-yl]amino]-1-piperidyl]methyl]benzenesulfonamide” for “test compound”; format: functional, organism-based; conditions: Human immunodeficiency virus 1, 3B, MT4, 120 h
[5] = target: Human immunodeficiency virus type 1 reverse transcriptase (Human immunodeficiency virus 1, UniProt Q72547); assay: Inhibition of HIV1 RT in presence of reconstituted template and viral nucleotides [digoxigenin (DIG)-dUTP, biotin-dUTP and dTTP] incubated for 1 hr by ELISA method
[6] = target: Human immunodeficiency virus type 1 reverse transcriptase (Human immunodeficiency virus 1, UniProt Q72547, L100I); assay: Inhibition of HIV1 RT L100I mutant in presence of reconstituted template and viral nucleotides [digoxigenin (DIG)-dUTP, biotin-dUTP and dTTP] incubated for 1 hr by ELISA method
[7] = target: Human immunodeficiency virus type 1 reverse transcriptase (Human immunodeficiency virus 1, UniProt Q72547, K103N); assay: Inhibition of HIV1 RT K103N mutant in presence of reconstituted template and viral nucleotides [digoxigenin (DIG)-dUTP, biotin-dUTP and dTTP] incubated for 1 hr by ELISA method
[8] = target: Human immunodeficiency virus type 1 reverse transcriptase (Human immunodeficiency virus 1, UniProt Q72547, Y181C); assay: Inhibition of HIV1 RT Y181C mutant in presence of reconstituted template and viral nucleotides [digoxigenin (DIG)-dUTP, biotin-dUTP and dTTP] incubated for 1 hr by ELISA method
[9] = target: Human immunodeficiency virus type 1 reverse transcriptase (Human immunodeficiency virus 1, UniProt Q72547, Y188L); assay: Inhibition of HIV1 RT Y188L mutant in presence of reconstituted template and viral nucleotides [digoxigenin (DIG)-dUTP, biotin-dUTP and dTTP] incubated for 1 hr by ELISA method
[10] = target: Human immunodeficiency virus type 1 reverse transcriptase (Human immunodeficiency virus 1, UniProt Q72547, E138K); assay: Inhibition of HIV1 RT E138K mutant in presence of reconstituted template and viral nucleotides [digoxigenin (DIG)-dUTP, biotin-dUTP and dTTP] incubated for 1 hr by ELISA method
[11] = target: Human immunodeficiency virus type 1 reverse transcriptase (Human immunodeficiency virus 1, UniProt Q72547, K103N/Y181C); assay: Inhibition of HIV1 RT K103N/Y181C mutant in presence of reconstituted template and viral nucleotides [digoxigenin (DIG)-dUTP, biotin-dUTP and dTTP] incubated for 1 hr by ELISA method
[12] = test system: Human immunodeficiency virus 1; assay: Antiviral activity against HIV1 RES056 infected in human MT4 cells assessed as protection against virus-induced cytopathic effect incubated for 5 days by MTT assay; format: functional, organism-based; conditions: Human immunodeficiency virus 1, RES056, MT4, 120 h
[13] = test system: Human immunodeficiency virus 1; assay: Antiviral activity against HIV1 3B infected in human MT4 cells assessed as protection against virus-induced cytopathic effect incubated for 5 days by MTT assay; format: functional, organism-based; conditions: Human immunodeficiency virus 1, 3B, MT4, 120 h
MT4 = assay: Cytotoxicity against human MT4 cells assessed as reduction in cell viability incubated for 5 days by MTT assay; format: functional; conditions: MT4, 120 h
[14] = Selectivity index, ratio of CC50 for human MT4 cells to EC50 for antiviral activity against HIV1 3B infected in human MT4 cells
[15] = Selectivity index, ratio of CC50 for human MT4 cells to EC50 for antiviral activity against HIV1 RES056 infected in human MT4 cells
[16] = test system: Human immunodeficiency virus 1; assay: Antiviral activity against HIV1 expressing RT L100I mutant infected in human MT4 cells assessed as protection against virus-induced cytopathic effect incubated for 5 days by MTT assay; format: functional, organism-based; conditions: Human immunodeficiency virus 1, MT4, 120 h
[17] = test system: Human immunodeficiency virus 1; assay: Antiviral activity against HIV1 expressing RT K103N mutant infected in human MT4 cells assessed as protection against virus-induced cytopathic effect incubated for 5 days by MTT assay; format: functional, organism-based; conditions: Human immunodeficiency virus 1, MT4, 120 h
[18] = test system: Human immunodeficiency virus 1; assay: Antiviral activity against HIV1 expressing RT Y181C mutant infected in human MT4 cells assessed as protection against virus-induced cytopathic effect incubated for 5 days by MTT assay; format: functional, organism-based; conditions: Human immunodeficiency virus 1, MT4, 120 h
[19] = test system: Human immunodeficiency virus 1; assay: Antiviral activity against HIV1 expressing RT Y188L mutant infected in human MT4 cells assessed as protection against virus-induced cytopathic effect incubated for 5 days by MTT assay; format: functional, organism-based; conditions: Human immunodeficiency virus 1, MT4, 120 h
[20] = test system: Human immunodeficiency virus 1; assay: Antiviral activity against HIV1 expressing RT E138K mutant infected in human MT4 cells assessed as protection against virus-induced cytopathic effect incubated for 5 days by MTT assay; format: functional, organism-based; conditions: Human immunodeficiency virus 1, MT4, 120 h
[21] = test system: Human immunodeficiency virus 1; format: functional, organism-based; conditions: Human immunodeficiency virus 1, MT4, 120 h

Work on `Cc1cc(C#N)cc(C)c1Oc1nc(NC2CCN(Cc3ccc(S(N)(=O)=O)cc3)CC2)nc2ccsc12` yielded an EC50 [1] of 1.1 nM, an EC50 [2] of over 36400 nM and an EC50 [3] of over 36400 nM. For the same compound, the EC50 [4] was over 36400 nM, the IC50 [5] was 76 nM and the IC50 [6] was 92 nM. It also gave an IC50 [7] of 162 nM, an IC50 [8] of 126 nM and an IC50 [9] of 215 nM. It also gave an IC50 [10] of 200 nM and an IC50 [11] of 71 nM.
With `Cc1cc(/C=C/C#N)cc(C)c1Oc1nc(NC2CCN(Cc3ccc(S(N)(=O)=O)cc3)CC2)nc2ccsc12` the EC50 [2] was over 5530 nM, the EC50 [3] was 860 nM and the EC50 [4] was 1220 nM. For the same compound, the IC50 [5] was 101 nM, the IC50 [6] was 99 nM and the IC50 [7] was 191 nM. For the same compound, the IC50 [8] was 149 nM, the IC50 [9] was 301 nM and the IC50 [10] was 350 nM. The IC50 [11] was 107 nM.
For `Cc1cc(/C=C/C#N)cc(C)c1Oc1nc(NC2CCN(Cc3ccc(F)cc3)CC2)nc2sccc12`, the EC50 [12] was 150 nM, the EC50 [13] was 19.7 nM and the CC50 (MT4) was 5840 nM. For the same compound, the selectivity ratio [14] was 279, the selectivity ratio [15] was 39 and the EC50 [16] was 30.4 nM. For the same compound, the EC50 [17] was 22.6 nM, the EC50 [18] was 36.3 nM and the EC50 [19] was 152 nM. It also gave an EC50 [20] of 123 nM and an EC50 [21] of 127 nM.
With `Cc1cc(/C=C/C#N)cc(C)c1Oc1nc(NC2CCN(Cc3ccc(C(N)=O)cc3)CC2)nc2sccc12` the EC50 [12] was 66.9 nM, the EC50 [13] was 5.92 nM and the CC50 (MT4) was 3540 nM. For the same compound, the selectivity ratio [14] was 597, the selectivity ratio [15] was 53 and the EC50 [16] was 6.11 nM. For the same compound, the EC50 [17] was 4.99 nM, the EC50 [18] was 12.8 nM and the EC50 [19] was 27.1 nM. The EC50 [20] was 9.24 nM and the EC50 [21] was 15.1 nM.
For `CCOC(=O)c1ccc(CN2CCC(Nc3nc(Oc4c(C)cc(/C=C/C#N)cc4C)c4ccsc4n3)CC2)cc1`, the EC50 [12] was 153 nM, the EC50 [13] was 10.6 nM and the CC50 (MT4) was 111000 nM. The selectivity ratio [14] was 10500, the selectivity ratio [15] was 728 and the EC50 [16] was 19.4 nM. It also gave an EC50 [17] of 12 nM, an EC50 [18] of 30.9 nM and an EC50 [19] of 120 nM. The EC50 [20] was 33.1 nM and the EC50 [21] was 32.1 nM.
`Cc1cc(/C=C/C#N)cc(C)c1Oc1nc(NC2CCN(Cc3ccc(C#N)cc3)CC2)nc2sccc12` showed an EC50 [12] of 138 nM, an EC50 [13] of 12.4 nM and a CC50 (MT4) of 7740 nM. The selectivity ratio [14] was 625, the selectivity ratio [15] was 56 and the EC50 [16] was 21.3 nM. For the same compound, the EC50 [17] was 17.3 nM, the EC50 [18] was 32.8 nM and the EC50 [19] was 117 nM. It also gave an EC50 [20] of 36.3 nM and an EC50 [21] of 32.6 nM.
